For assay [1], the system named is p210-BCR-ABL(T315I) leukemia. The assay can be described thus: TKI-resistant p210-BCR-ABL(T315I) mouse model. The assay is classed as in vivo, mice. The text has this: LDBM cells were transduced with TKI-resistant p210-BCR-ABL1(T315I) (gatekeeper mutant) and transplanted into recipient mice as in FIG. 10. […] (B) Flow cytometric analysis of leukemic progenitor (EGFP^+) B-cells in peripheral blood (PB) at the indicated week.
To further test this idea, we evaluated the ability of IODVA1 to increase the survival of mice harboring p210-BCR-ABL(T315I).
C57Bl/6 mice were commercially obtained (The Jackson Laboratory and Harlan Laboratories) and used as donors and/or recipients of transduction/transplantation models under a protocol approved by The Cincinnati Children's Hospital Medical Center Institutional Animal Care and Use Committee.
After a single wash in PBS, cells were stained with anti-B220 APC-Cy7 antibody. Stained cells were washed once and analyzed by flow cytometry.

Assay [2] has as its system pPAK and pBAD in p190-BCR-ABL Ba/F3 cells. Briefly: Immunoblot for pPAK(T423) and pBAD(S136). In kind it is cell-based, murine. The settings on record: 3 μM, within minutes of cell exposure. On the technique in general: A western blot detects proteins with antibodies after separation by electrophoresis.
Assay [3] relates to Vav3−/− cells expressing p190-BCR-ABL. The assay can be described thus: Cell cycle analysis. The assay is classed as cell-based, murine. The settings on record: 3 μM, 20 h. On the procedure:
FIG. 14: IODVA1 targets Vav3 in vitro and in vivo. (A) Ba/F3 cells expressing empty vector Mieg3 or p190-BCR-ABL1 were treated with vehicle control or IODVA1 (IO1, 3 μM) for 30 min and incubated with GST-Rac and glutathione beads. Beads were washed and the protein complexes were separated on SDS-PAGE and immunoblotted for pVav3. Input Vav3 was used as control. (B) Binding affinity (Kd) between IODVA1 and Vav3 (green), LARG (brown), and RacGDP (blue). […] Error bars=SD; N=3. (C) Quantification of the average number of colonies made by bone marrow wild-type (black) and Vav3^−/− (lilac) p190-BCR-ABL1 leukemic cells treated with vehicle control or IODVA1 (IO1, 1 and 3 μM) (* p≤0.05; ** p≤0.01; *** p≤0.001; ns, not significant). (D) Representative histogram data of the cell cycle analysis of wild-type (black and grey bars) and Vav3^−/− (dark and light lilac) bone marrow cells expressing p190-BCR-ABL and treated with vehicle control or IODVA1 (IO1, 3 μM) for 20 h. (E) Quantification by densitometry of the pVav3 band from FIG. 14A. […]
Cell cycle was analyzed by using in vitro incorporation of 5-Bromo-2-deoxyuridine using Brdu Flow kit (BD Pharmingen, Cat #552598). […] DNAse treatment was done according to the instructions and stained with anti BrdU and apoptosis was analyzed by 7-AAD staining through flow cytometry analysis.

As for `OC1(c2ccccn2)N=C(Nc2nc3ccccc3[nH]2)N=C1c1ccccn1` (centres unmarked) [IODVA1, (Z)-2-((1H-benzo[d]imidazol-2-yl)imino)-4,5-di(pyridin-2-yl)-2,5-dihydro-1H-imidazol-5-ol], the “treated mice surviving until day 65” value in assay [1] (37 days post last treatment) stood at 80%. The “treated mice surviving till day 80” value in assay [1] (52 days post last treatment) was found to be 60%. Further, the “decrease in leukemic progenitor levels (EGFP+/B220+) in peripheral blood” value came to 84% in assay [1] (week 5), 91% in assay [1] (week 10) and 24% in assay [1] (week two). In addition, the “inhibitory phosphorylation of BAD Ser136” value in assay [2] is reported as “decreases”. Moreover, the pPAK entry in assay [2] is “decreases”. In addition, the cell cycle entry in assay [3] was “not affected”.

These data come from US11564913B2, “Compositions and methods for treating cancer” (Children's Hospital Medical Center, priority 2019, dated 2023).
